Assay results: patent US6716596B2, “Agents for replacement of NAD+/NADH system in enzymatic reactions” (The Regents of the University of California, priority 2001, dated 2004)
Counter-ions that a name gives are not always drawn.

Experiments:
[1] = competitive regioselective substrate reduction experiments with rhodium catalyst precursor (2)
Procedure: In order to establish whether the σ-donating ability or the electron-withdrawing effect of the 3-substituent of the 1-benzylnicotinamide was the important parameter, several competitive substrate reduction experiments were performed.
For this purpose, the compound (1a) 1-benzylnicotinamide, was reduced with rhodium catalyst precursor (2) in the presence of its alternatively substituted derivatives, compounds (1e), substituted with —C(O)—CH3, (1g), substituted with (—CN), (1d), substituted with —C(S)NH2 or (1f), substituted with —C(O)OCH3, and their competitive reduction was determined.

[2] = biological target: T1, horse liver alcohol dehydrogenase (HLADH) (Equus caballus, UniProt P00327); test: HLADH enzymatic chiral reduction of ketones with biomimic co-factor regeneration; assay type: biochemical
T1 construct: purchased Sigma
Procedure: FIG. 7 presents structures of ketone substrates 12-15 used for biomimic chiral synthesis of corresponding alcohols. Conversion of the substrates 12-15 to their corresponding alcohols are expressed in % yield, and TOF in d^−1 and S-enantiomer excess (ee) are also shown for each conversion. Corresponding values obtained with NAD^+ are given in parenthesis. The S-enantiomeric excess (ee) was determined by GLC with a modified β-cyclodextrin capillary column.
[Cp*Rh(bpy)(H2O)]OTf2 (1.9 mg, 2.61×10^−3 mmol), sodium formate (17.8 mg, 261.69×10^−3 mmol), NAD^+ (8.1 mg, 11.23×10^−3 mmol) and HLADH (10 units) were placed in a 10 mL Schlenk flask, and Schlenk techniques were followed to deoxygenate the solid mixture.
Under positive argon pressure, 5 mL of potassium phosphate buffer (100 mM, pH=7.02, deoxygenated) and carbonyl substrate (83.58×10^−3 mmol, deoxygenated) were added via syringe. The reaction flask was immediately securely capped with a glass-stopper and shaken with a shaker in 30° C. water-bath. The reaction was monitored by gas chromatography (GC), equipped with a β-cyclodextrin column (Supelco, β-DEX-225), and the products were identified by comparing the retention time with the corresponding authentic chiral samples and were confirmed by GC-MS. The enantiomeric excess of the products was determined directly by their relative area in the chromatogram. The progress of the reaction was obtained by mixing the reaction aliquot with an internal standard (cyclohexanol in phosphate buffer), and then calibrating the measured relative area in the chromatogram with their corresponding response factors. The reaction was monitored for 24 hours.
The same procedure as described in section A was followed, except that NAD^+ was substituted with any one of the biomimic compounds of the invention.

T1 sequence (P00327 2-375 limits assumed): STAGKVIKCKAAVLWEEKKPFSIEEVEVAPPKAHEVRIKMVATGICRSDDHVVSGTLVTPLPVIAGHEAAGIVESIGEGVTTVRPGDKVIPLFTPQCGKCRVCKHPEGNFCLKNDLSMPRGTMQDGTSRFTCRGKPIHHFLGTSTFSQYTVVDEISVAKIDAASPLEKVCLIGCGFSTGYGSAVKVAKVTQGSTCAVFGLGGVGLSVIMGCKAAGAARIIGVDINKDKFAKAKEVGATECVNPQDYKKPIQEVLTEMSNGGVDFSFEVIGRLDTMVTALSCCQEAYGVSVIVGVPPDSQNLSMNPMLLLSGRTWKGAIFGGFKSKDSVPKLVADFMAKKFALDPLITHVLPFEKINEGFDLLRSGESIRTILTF

Structure (SMILES): NC(=O)c1ccc[n+](Cc2ccccc2)c1 [Compound 1a, 1-Benzylnicotinamide, Triflate Salt]
- times faster than the —C(O)CH3 analog (1e) ([1]; competitive reduction of (1a) with (1e)): 1.1 times
- times faster than the —CN analog (1g) ([1]; competitive reduction of (1a) with (1g)): 1.3 times
- recognition by HLADH as hydride catalyst of the chiral conversion [2]: recognizes
- turnover frequency of chiral ketone reduction ([2]; ketone (12) reduced by HLADH with co-factor regeneration, 24 hours): ~30 day⁻¹
